In one test the target is T1, human HDAC1 (Homo sapiens, UniProt Q13547).
T1 construct: made in house; host or cells: 293T cells (transient transfection, anti-FLAG immunoprecipitation, FLAG peptide elution)
As to the kind of experiment: HDAC-inhibiting activity, coumarin-labeled acetylated histone peptide assay. Format: biochemical. Particulars: human HDAC1 from transfected 293T cells; 37° C., 30 minutes. The method, then:
(§1) In carrying out HDAC-inhibiting activity measurements, HDAC solutions were prepared in the following manner. In each 100-mm dish, there were sowed 1×10^7 293T cells and, after 24 hours, they were transfected with a vector (5 μg) expressing human HDAC1 or HDAC4 or murine HDAC6 using the LipofectAmine 2000 reagent (Invitrogen). The human HDAC1 expression vector used was pcDNA3-HD1 (Yang, W. M., Yao, Y. L., Sun, J. M., Davie, J. R. & Seto, E. (1997) J. Biol. Chem. 272, 28001-28007), the human HDAC4 expression vector used was pcDNA3-HD4 (Fischle, W., Emiliani, S., Hendzel, M. J., Nagase, T., Nomura, N., Voelter, W. & Verdin, E. (1999) J. Biol. Chem. 274, 11713-11720), and the murine HDAC6 expression vector used was pcDNA3-mHDA2/HDAC6 (Verdel, A. & Khochbin, S. (1999) J. Biol. Chem. 274, 2440-2445).
(§2) After 24 hours of incubation, cells were recovered, washed with PBS, suspended in lysis buffer (50 mM Tris-HCl (pH 7.5), 120 mM NaCl, 5 mM EDTA, 0.5% Nonidet P-40), and sonicated. The supernatant was collected by centrifugation and then deprived of nonspecific proteins using Protein A/G plus agarose beads (Santa Cruz Biotechnologies, Inc.). Thereafter, anti-FLAG M2 antibody (Sigma-Aldrich Inc.) was added, and the reaction was allowed to proceed at 4° C. for 2 hours.
(§3) To this were added agarose beads, the reaction was allowed to proceed at 4° C. for 3 hours, and the agarose beads were washed three times with lysis buffer and then once with HD buffer (20 mM Tris-HCl (pH 8.0), 150 mM NaCl, 10% glycerol). The protein bound to the agarose beads was recovered by 1 hour of incubation with FLAG peptide (40 μg) (Sigma-Aldrich Inc.) in HD buffer (200 μl) at 4° C., and the liquid recovered was used, as a reactant solution, in the HDAC-inhibiting activity measurement described below.
(§4) HDAC-inhibiting activity evaluation in each in vitro system was made as follows. Each test compound was dissolved in DMSO, a stock solution with a concentration of 10 mM was thus prepared and this was used as an inhibitor stock solution. The assay was carried out by incubating the HDAC solution and a coumarin-labeled acetylated histone peptide solution in the presence of the test compound at 37° C. for 30 minutes (reaction volume 20 μl). To the reaction mixture was added 30 μl of trypsin, and the aminomethylcoumarin released by the enzymatic reaction was assayed using a fluorescent plate reader. In a negative control assay, no inhibitor was added to the reaction system and the same procedure was carried out.

A further test addresses T2, murine HDAC6 (Mus musculus, UniProt Q9Z2V5).
T2 construct: made in house; host or cells: 293T cells (transient transfection, anti-FLAG immunoprecipitation, FLAG peptide elution)
T2 sequence (Q9Z2V5 1-1149): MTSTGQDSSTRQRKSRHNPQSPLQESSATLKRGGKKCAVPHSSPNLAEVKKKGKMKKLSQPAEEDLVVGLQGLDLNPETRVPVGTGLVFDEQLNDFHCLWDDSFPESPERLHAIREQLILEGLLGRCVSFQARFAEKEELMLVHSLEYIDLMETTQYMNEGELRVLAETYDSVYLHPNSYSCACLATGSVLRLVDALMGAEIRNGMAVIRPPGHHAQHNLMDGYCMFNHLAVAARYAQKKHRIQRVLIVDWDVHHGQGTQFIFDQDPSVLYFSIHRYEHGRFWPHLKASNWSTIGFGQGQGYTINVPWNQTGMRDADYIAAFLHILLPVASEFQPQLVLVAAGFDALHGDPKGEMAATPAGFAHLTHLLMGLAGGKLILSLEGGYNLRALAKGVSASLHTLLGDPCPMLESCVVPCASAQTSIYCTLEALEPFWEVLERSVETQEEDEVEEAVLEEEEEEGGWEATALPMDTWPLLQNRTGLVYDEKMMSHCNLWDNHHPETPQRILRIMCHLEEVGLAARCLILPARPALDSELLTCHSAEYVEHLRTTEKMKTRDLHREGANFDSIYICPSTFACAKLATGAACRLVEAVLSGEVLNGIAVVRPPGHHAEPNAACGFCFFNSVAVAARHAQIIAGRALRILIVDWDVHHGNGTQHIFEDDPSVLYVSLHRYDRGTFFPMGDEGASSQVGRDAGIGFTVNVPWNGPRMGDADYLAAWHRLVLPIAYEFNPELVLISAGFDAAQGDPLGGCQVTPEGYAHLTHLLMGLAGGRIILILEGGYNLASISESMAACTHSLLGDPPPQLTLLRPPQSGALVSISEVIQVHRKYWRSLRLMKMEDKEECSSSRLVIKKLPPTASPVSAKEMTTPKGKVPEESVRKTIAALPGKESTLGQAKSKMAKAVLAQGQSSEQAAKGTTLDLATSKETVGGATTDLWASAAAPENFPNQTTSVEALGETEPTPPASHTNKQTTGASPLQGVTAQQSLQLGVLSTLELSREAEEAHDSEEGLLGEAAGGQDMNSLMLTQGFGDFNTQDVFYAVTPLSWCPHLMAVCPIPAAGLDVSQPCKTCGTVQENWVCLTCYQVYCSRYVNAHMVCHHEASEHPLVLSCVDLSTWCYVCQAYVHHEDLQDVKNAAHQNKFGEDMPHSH
The test is described as above. Type of test: biochemical. The settings on record: murine HDAC6 from transfected 293T cells; 37° C., 30 minutes. On the procedure:
as §1, §2, §3, §4

T1 sequence (Q13547 whole entry): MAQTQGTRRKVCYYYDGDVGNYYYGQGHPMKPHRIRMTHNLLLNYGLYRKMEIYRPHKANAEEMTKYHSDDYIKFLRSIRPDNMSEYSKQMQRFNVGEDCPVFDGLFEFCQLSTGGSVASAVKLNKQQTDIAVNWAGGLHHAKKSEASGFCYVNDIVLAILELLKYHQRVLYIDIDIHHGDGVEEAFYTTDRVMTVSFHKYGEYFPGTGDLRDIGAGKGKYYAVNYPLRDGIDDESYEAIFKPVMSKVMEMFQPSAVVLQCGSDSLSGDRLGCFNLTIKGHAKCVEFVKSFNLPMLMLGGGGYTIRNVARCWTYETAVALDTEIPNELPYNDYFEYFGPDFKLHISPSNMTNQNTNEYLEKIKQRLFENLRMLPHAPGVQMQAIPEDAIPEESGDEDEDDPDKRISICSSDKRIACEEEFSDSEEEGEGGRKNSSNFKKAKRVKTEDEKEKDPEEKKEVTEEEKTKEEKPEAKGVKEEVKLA

A word on the IC50: it is the midpoint of a concentration-inhibition curve. Read a high IC50 as a need for much substance. Turning to `CC1(C)NC(=O)[C@H](CCCCCSCc2ccncc2)NC(=O)[C@H]2CCCN2C(=O)[C@H](Cc2ccccc2)NC1=O` [Ky-26, cyclo(-L-Am7(4-pyridylmethyl)-Aib-L-Phe-D-Pro-)], the IC50 on human HDAC1 is 50 nM; against murine HDAC6, 1400 nM.

These data come from US8158587B2, “Compound having histone deacetylase-inhibiting activity, and pharmaceutical composition comprising the compound as an active ingredient” (Kyushu Institute of Technology, priority 2006, dated 2012).
